pIC50: −log10 of the molar value. In brackets after ≈: the same amount, converted by molar mass. Where two headings read alike, the source gives them in different places.
What was measured:
Jurkat cells = test: Cell cytotoxicity assay, Jurkat cell viability (assay (r)); type: cell-based, human; details: 24 hours
Method: 1×10^5 Jurkat cells (immortalised human T lymphocytes) are added to the appropriate number of wells of a 96 well plate in 100 μL of media (RPMI supplemented with 10% foetal bovine serum). 1 μL of DMSO control (final concentration 1.0% v/v) or test compound (final concentration 20, 5 or 1 μg/mL) is added to the wells and incubated at 37° C., 5% CO2. After 24 hours, the plate is centrifuged at 1200 rpm for 3 minutes and the supernatant discarded. Cells are then resuspended in 150 μL (final concentration 7.5 μg/mL) of propidium iodide (PI) in PBS and incubated at 37° C., 5% CO2 for 15 minutes. After 15 minutes, cells are analysed by flow cytometry (BD accuri) using the FL3 window. The % viability is calculated as the % of cells that are P negative in the test wells normalised to the DMSO control.

p38 MAPKα = p38 MAPKα (Homo sapiens (Human), UniProt Q16539); test: p38 MAPKα enzyme inhibition (FRET, Z-LYTE; Method 2); type: biochemical
p38 MAPKα, sequence (Q16539 whole entry): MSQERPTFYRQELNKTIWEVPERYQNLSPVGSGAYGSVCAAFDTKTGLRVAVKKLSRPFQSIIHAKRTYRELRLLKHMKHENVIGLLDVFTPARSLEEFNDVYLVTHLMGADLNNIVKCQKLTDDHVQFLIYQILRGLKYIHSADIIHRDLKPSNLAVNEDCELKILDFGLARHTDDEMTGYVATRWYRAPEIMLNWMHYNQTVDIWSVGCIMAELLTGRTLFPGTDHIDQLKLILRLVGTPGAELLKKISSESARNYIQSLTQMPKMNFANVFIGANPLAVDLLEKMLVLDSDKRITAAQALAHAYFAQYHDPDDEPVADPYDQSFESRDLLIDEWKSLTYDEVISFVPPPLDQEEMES
Method: (§1) The enzyme inhibitory activities of compounds disclosed herein are determined by FRET using synthetic peptides labelled with both donor and acceptor fluorophores (Z-LYTE, Invitrogen Ltd., Paisley, UK).
The inhibitory activities of test compounds against the p38 MAPKα isoform (MAPK14: Invitrogen) are evaluated indirectly by determining the level of activation/phosphorylation of the down-stream molecule, MAPKAP-K2. The p38 MAPKα protein (80 ng/mL, 2.5 μL) is mixed with the test compound (2.5 μL of either 4 μg/mL, 0.4 μg/mL, 0.04 μg/mL or 0.004 μg/mL) for 2 hr at RT. […] The mixture is incubated for 1 hr at RT. Development reagent (protease, 5 μL) is added for 1 hr prior to detection in a fluorescence microplate reader (Varioskan® Flash, ThermoFisher Scientific).
This method follows the same steps as Method 1 above, but utilises a higher concentration of the p38 MAPKα protein (2.5 μL of 200 ng/mL protein instead of 2.5 μL of 80 ng/mL protein) for mixing with the test compound (tested at either 1 μg/mL, 0.1 μg/mL, 0.01 μg/mL or 0.001 μg/mL).
(§2) In all cases, the site-specific protease cleaves non-phosphorylated peptide only and eliminates the FRET signal. Phosphorylation levels of each reaction are calculated using the ratio of coumarin emission (donor) over fluorescein emission (acceptor), for which high ratios indicate high phosphorylation and low ratios indicate low phosphorylation levels. […]

c-Src = c-Src (Homo sapiens (Human), UniProt P12931); test: c-Src enzyme inhibition (FRET, Z-LYTE); type: biochemical
c-Src, sequence (P12931 whole entry, looked up): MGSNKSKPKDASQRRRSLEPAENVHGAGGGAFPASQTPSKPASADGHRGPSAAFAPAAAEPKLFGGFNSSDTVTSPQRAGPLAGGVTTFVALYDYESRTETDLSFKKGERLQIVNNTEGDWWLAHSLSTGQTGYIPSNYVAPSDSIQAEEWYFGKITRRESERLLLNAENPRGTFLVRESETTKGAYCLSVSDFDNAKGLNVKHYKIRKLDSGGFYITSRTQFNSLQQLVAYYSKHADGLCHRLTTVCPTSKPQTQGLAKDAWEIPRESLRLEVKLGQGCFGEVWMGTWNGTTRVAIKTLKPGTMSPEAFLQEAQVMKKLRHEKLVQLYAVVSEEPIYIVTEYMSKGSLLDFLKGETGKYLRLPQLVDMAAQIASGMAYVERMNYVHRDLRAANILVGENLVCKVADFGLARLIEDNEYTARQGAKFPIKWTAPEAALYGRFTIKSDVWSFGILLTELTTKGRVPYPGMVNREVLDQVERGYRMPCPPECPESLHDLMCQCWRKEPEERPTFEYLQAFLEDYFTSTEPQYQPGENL
Method: as §1
(§3) The inhibitory activities of compounds of the invention against c-Src and Syk enzymes (Invitrogen), are evaluated in a similar fashion to that described hereinabove. The relevant enzyme (3000 ng/mL or 2000 ng/mL respectively, 2.5 μL) is incubated with the test compound (either 1 μg/mL, 0.1 μg/mL, 0.01 μg/mL, or 0.001 μg/mL, 2.5 μL each) for 2 hr at RT. The FRET peptides (8 μM. 2.5 μL), and appropriate ATP solutions (2.5 μL, 800 μM for c-Src, and 60 μM ATP for Syk) are then added to the enzymes/compound mixtures and the mixture incubated for 1 hr. Development reagent (protease, 5 μL) is added for 1 hr prior to detection in a fluorescence microplate reader (Varioskan® Flash, ThermoFisher Scientific).
as §2

Syk = Syk (Homo sapiens (Human), UniProt P43405); test: Syk enzyme inhibition (FRET, Z-LYTE); type: biochemical
Method: as §1, §3, §2

IL-8 release in PBMCs = test: LPS-induced IL-8 release in PBMC cells (assay (b)); type: cell-based; details: Homo sapiens, LPS-stimulated PBMCs
Text: Peripheral blood mononuclear cells (PBMCs) from healthy subjects are separated from whole blood using a density gradient (Lymphoprep, Axis-Shield Healthcare). […] The supernatant is harvested for determination of IL-8 and TNFα concentrations by sandwich ELISA (Duo-set, R&D systems) and read on the fluorescence microplate reader (Varioskan® Flash, ThermoFisher Scientific).

[1] = test system: IFN gamma release in PBMCs; test: IFN gamma release in CD3/CD28 stimulated PBMC cells (assay (c)); type: cell-based; details: Homo sapiens, read-out: IC50 Values in PBMCs IFNγ
Method: PBMCs from healthy subjects are separated from whole blood using a density gradient (Lymphoprep, Axis-Shield Healthcare). Cells are added to a 96 well plate pre-coated with a mixture of CD3/CD28 monoclonal antibodies (0.3 μg/mL eBioscience and 3 μg/mL BD Pharmingen respectively). Compound at the desired concentration is then added to the wells and the plate left for 3 days under normal tissue culture conditions. Supernatants are harvested and IL-2 and IFN gamma release determined by Sandwich ELISA (Duo-set, R&D System). The IC50 is determined from the dose response curve.

[2] = Solubility in fasted-state simulated colonic fluid (FaSSCoF) at pH 6.5; type: physicochemical; details: fasted-state simulated colonic fluid (FaSSCoF), 25 °C, pH 6.5, fassgf or other biorelevant, thermodynamic from solid, pH 6.5, 25° C.
Method: The solubilities of compounds of the invention in FaSSCoF at pH 6.5 are determined using a modification of a previously-reported procedure (Vertzoni, M., et al. Pharm. Res. 2010, 27, 2187-2196). In place of the bile salt extract employed in the original procedure (which extract is no longer available), the modified procedure uses a mixture of sodium taurocholate (0.15 g), glycocholic acid (0.15 g), ursodeoxycholic acid (0.05 g), cholic acid (0.05 g), and glycodeoxycholic acid (0.05 g). These five bile acids are ground together with a mortar and pestle to produce a fine white powder that is incorporated into the FaSSCoF, as outlined below.
FaSSCoF medium: Tris(hydroxymethyl)aminomethane (Tris; 0.275 g) and maleic acid (0.44 g) are dissolved in water (35 mL) to give a solution whose pH is adjusted to 6.5 by treatment with 0.5M NaOH (ca. 12 mL). The solution is then made up to 50 mL with water. A portion of this Tris/maleate buffer solution (ca. 25 mL) is added to a 0.5 L round-bottomed flask, before being treated with 0.00565 g of the bile acid mixture described above. Solutions of phosphatidylcholine (0.0111 g) in DCM (0.15 mL) and palmitic acid (0.0013 g) in DCM (0.15 mL) are added, then the organic solvent is evaporated off under reduced pressure at 40° C. until a clear solution, with no perceptible DCM odour, is achieved. The volume of the evaporated solution is adjusted to 50 mL by addition of the remainder of Tris/maleate buffer, then BSA (0.115 g) is added, before being dissolved by gentle agitation.
Solubility Determination: Test compounds are suspended in the pH 6.5 FaSSCoF medium to give a maximum final concentration of 2-10 mg/mL. The suspensions are equilibrated at 25° C. for 24 h, before being filtered through a glass fibre C filter. The filtrates are then diluted as appropriate for injection and quantification by HPLC with reference to a standard. Different volumes of the standard, diluted and undiluted sample solutions are injected and the solubilities are calculated using the peak areas determined by integration of the peak found at the same retention time as the principal peak in the standard injection.

[3] = Solubility and dissolution rate in phosphate-buffered saline (further studies); type: physicochemical; details: pH 6.5 with 0.5% by weight of simulated intestinal fluid or pH 7.2
[4] = Run 1, read-out: pH 6.5 FaSSCoF Solubility Run 1
[5] = Run 2, read-out: pH 6.5 FaSSCoF Solubility Run 2

| pIC50 (p38 MAPKα) | pIC50 (c-Src) | pIC50 (Syk) | SMILES | % Viability at 1 μg/mL (Jurkat cells) [%] | % Viability at 5 μg/mL (Jurkat cells) [%] | % Viability at 20 μg/mL (Jurkat cells) [%] | pIC50 (IL-8 release in PBMCs) | pIC50 [1] | solubility thermodynamic at 24 h [2, 4] [mg/mL] | solubility thermodynamic at 24 h [2, 5] [mg/mL] | Dissolution rate relative to Reference Compounds A (hydrochloride salt) and B [3] | Solubility relative to Reference Compounds A (hydrochloride salt) and B [3] |
| --- | --- | --- | --- | --- | --- | --- | --- | --- | --- | --- | --- | --- |
|  |  |  | COCC(=O)Nc1cc(Oc2ccc(NC(=O)Nc3cc(C(C)(C)C)nn3-c3ccc(C)cc3)c3ccccc23)ccn1 [Reference compound, N-(4-(4-(3-(3-tert-butyl-1-p-tolyl-1H-pyrazol-5-yl)ureido)naphthalen-1-yloxy)pyridin-2-yl)-2-methoxyacetamide, reference compound] | 29 | 26 | 24 |  |  |  |  |  |  |
| 7.64 | 7.85 | 8.10 | COc1cc(Nc2nccc(Oc3ccc(NC(=O)Nc4cc(C(C)(C)C)cc(NS(C)(=O)=O)c4OC)c4ccccc34)n2)cc(OCCOCCOCC(=O)O)c1 [Example 2, 2-(2-(2-(3-((4-((4-(3-(5-(tert-Butyl)-2-methoxy-3-(methylsulfonamido)phenyl)ureido)-naphthalen-1-yl)oxy)pyrimidin-2-yl)amino)-5-methoxyphenoxy)ethoxy)ethoxy)acetic acid] | 99 | 99 | 97 | 7.61 | 7.40 | 0.09 (≈ 110 µM) | 0.06 (≈ 73.3 µM) |  |  |
|  |  |  | COc1cc(Nc2cc(Oc3ccc(NC(=O)Nc4cc(C(C)(C)C)cc(NS(C)(=O)=O)c4OC)c4ccccc34)ccn2)cc(OCCOCCOCC(=O)[O-])c1.[Na+] [Example 31, 2-(2-(2-(3-((4-((4-(3-(5-(tert-Butyl)-2-methoxy-3-(methylsulfonamido)phenyl)ureido)-naphthalen-1-yl)oxy)pyridin-2-yl)amino)-5-methoxyphenoxy)ethoxy)ethoxy)acetic acid, sodium salt] |  |  |  |  |  | 1.9 | 2.1 | faster dissolution rate | more soluble than |
